Measurements from EP0563112B1, “ENHANCED BIOAVAILABILITY PHARMACEUTICAL COMPOSITION CONTAINING PROBUCOL” (MERRELL DOW PHARMACEUTICALS INC., priority 1990, dated 1992).

Assays:
[1] = Solubility determination of probucol in oils and binary solvent systems (HPLC assay); assay type: physicochemical
From the text: Captex® 200 is a propylene glycol ester of caprylic (C₈) and capric (C₁₀) fatty acids obtained by fractionation of certain coconut oil fatty acids and is known generically as propylene glycol dicaprylate/dicaprate. Captex® 300 is a caprylic and capric acid triglyceride obtained by fractionation and subsequent esterification of coconut oil and is known generically as caprylic/capric triglyceride. Capmul® MCM is a mono and diglyceride of caprylic and capric acids.
Eight grams of each oil were transferred into a glass tube with a teflon liner screw cap, and 2.5 g of probucol were added to each tube. The tubes were capped and shaken by hand until the probucol particles were wetted. The tubes were then rotated for at least 48 hours on a test tube rotating apparatus. The solubility of probucol was determined using a high performance liquid chromatography (HPLC) assay procedure.
In order to determine if the solubility of probucol could be enhanced by incorporating absolute ethanol in the oil, three binary systems: safflower oil:ethanol (90:10), polyethylene glycol (PEG) 400:ethanol (90:10, 80:20, 70:30), and Captex® 200:ethanol (95:5, 90:10, 85:15, 80:20, and 75:25) were evaluated. The solubility data shown in Table II indicate that in each case the solubility of probucol increased in the presence of ethanol.

[2] = Heeg and Tachizawa 1980; cited from earlier work

Compound: CC(C)(Sc1cc(C(C)(C)C)c(O)c(C(C)(C)C)c1)Sc1cc(C(C)(C)C)c(O)c(C(C)(C)C)c1 [probucol, 2,2'-bis (3,5-di-tertiarybutyl-4-hydroxyphenylthio)propane]
- Solubility (%w/v) ([1]; Captex® 200:Ethanol 75:25): 26.0 %w/v
- Solubility (%w/v) ([1]; Captex® 200:Ethanol 80:20): 26.0 %w/v
- Solubility (%w/v) ([1]; Captex® 200:Ethanol 85:15): 25.0 %w/v
- Solubility (%w/v) ([1]; Captex® 200:Ethanol 90:10): 24.0 %w/v
- Solubility (%w/v) ([1]; Captex® 200:Ethanol 95:5): 23.0 %w/v
- Solubility (%w/v) ([1]; PEG 400 100:00): 2.8 %w/v
- Solubility (%w/v) ([1]; PEG 400:Ethanol 80:20): 9.5 %w/v
- Solubility (%w/v) ([1]; PEG 400:Ethanol 90:10): 5.8 %w/v
- Solubility (%w/v) ([1]; PEG 400 Ethanol 70:30): 13.1 %w/v
- Solubility (%w/v) ([1]; Safflower Oil:Ethanol 90:10): 11.5 %w/v
- Solubility (%w/v) ([1]; in Capmul® MCM): 6.3 % w/v
- Solubility (%w/v) ([1]; in Captex® 200): 18.2 % w/v
- Solubility (%w/v) ([1]; in Captex® 300): 12.5 % w/v
- Solubility (%w/v) ([1]; in Corn oil): 5.8 % w/v
- Solubility (%w/v) ([1]; in Olive oil): 5.5 % w/v
- Solubility (%w/v) ([1]; in Peanut oil): 5.6 % w/v
- Solubility (%w/v) ([1]; in Safflower oil): 5.9 % w/v
- Solubility (%w/v) ([1]; in Sunflower oil): 5.8 % w/v
- Solubility (%w/v) ([1]; in Vegetable oil): 5.8 % w/v
- bioavailability of probucol from tablet dosage form [2]: 2-8%
